In patent US4188402A, “Derivatives of the D-threo-1-phenyl-2-trifluoroacetamido-1,3-propandediol” (Clesa S.p.A., priority 1977, dated 1980):
Converted amounts (≈) assume the structure as drawn.

Columns and labels:
[1] = test system: Staphylococcus albus 1238; experiment: MIC in vitro against thiamphenicol-resistant strain; assay type: cell-based; conditions: Staphylococcus albus 1238, thiamphenicol-resistant
Source text: (§1) Furthermore, the compounds of the present invention show a certain bacterial activity, both "in vitro" and in the presence of rabbit serum, in respect of some microorganism strains resistant against thiamphenicol (ie., […]; see Merck Index Ninth Edition, page 9034) as it appears from the following results: […]

[2] = test system: Staphylococcus aureus 4180; experiment: as above; assay type: cell-based; conditions: Staphylococcus aureus 4180, thiamphenicol-resistant
Source text: as §1

[3] = test system: Streptococcus faecalis Z 20; experiment: as above; assay type: cell-based; conditions: Enterococcus faecalis, Z20, Streptococcus faecalis Z 20, thiamphenicol-resistant
Source text: as §1

[4] = test system: Streptococcus faecalis Z 61; experiment: as above; assay type: cell-based; conditions: Enterococcus faecalis, Z61, Streptococcus faecalis Z 61, thiamphenicol-resistant
Source text: as §1

[5] = test system: Pseudomonas aeruginosa 50541; experiment: MIC in culture broth, in the presence of rabbit serum, against thiamphenicol-resistant strain; assay type: cell-based; conditions: Pseudomonas aeruginosa 50541, thiamphenicol-resistant
Source text: (§2) Furthermore, the compounds of the present invention show a certain bacterial activity, both "in vitro" and in the presence of rabbit serum, in respect of some microorganism strains resistant against thiamphenicol (ie., […]; see Merck Index Ninth Edition, page 9034) as it appears from the following results:
(§3) ** = tests carried out in culture broth, in the presence of rabbit serum.

Streptococcus faecalis = experiment: as above; assay type: cell-based; conditions: Enterococcus faecalis
Source text: as §2, §3

E. Coli K12 = experiment: MIC, agar dilutions in a double series, in vitro (Table 2); assay type: cell-based; conditions: Escherichia coli, E. Coli K12, agar dilution
Description: (§4) Insofar as the study of the antibacterial activity spectrum is concerned, this was performed by using the method of agar dilutions in a double series. The minimum inhibitory concentration (MIC) was performed against grampositive and gram-negative microorganisms as well as Proteus.

[6] = test system: Past. multocide NCTC 10722; experiment: as above; assay type: cell-based; conditions: Past. multocide NCTC 10722, agar dilution
Description: as §4

Proteus morgani N 520 = experiment: as above; assay type: cell-based; conditions: Proteus morgani N 520, agar dilution
Description: as §4

S. aureus Oxford = experiment: as above; assay type: cell-based; conditions: Staphylococcus aureus, agar dilution
Description: as §4

Salmonelli Typhi M-VI = experiment: as above; assay type: cell-based
Description: as §4

Strep. agalactiae 4 b = experiment: as above; assay type: cell-based; conditions: Streptococcus agalactiae, agar dilution
Description: as §4

[7] = test system: Strep. faecalis ATCC 10541; experiment: as above; assay type: cell-based; conditions: Enterococcus faecalis, ATCC10541, Strep. faecalis ATCC 10541, agar dilution
Description: as §4

[8] = test system: multocide NCTC 10722 Pasteurella; experiment: PD50 in experimental infection of the mouse by intraperitoneal inoculation (Table 3); assay type: in vivo; conditions: 120 h, treatment time 5 days, about 100 times the lethal amount at 50% i.p., Spearman-Karber
Source text: The study of the antibiotic activity of the derivatives of the present invention was completed by the determination of PD50 in experimental infections from multocide NCTC 10722 Pasteurella induced in the mouse by intraperitoneal inoculation of a bacterial amount equal to about 100 times the lethal amount at 50%. The determination of PD50 relating to the examined derivatives has been carried out according to the method of Spearman-Karber (L. Cavalli-Sforza "Analisi statistica per medici e biologi e analisi del dosaggio biologico"--Ed. Universitarie Boringhieri--Torino--1961, pages 173-175).

Shighelli Boydii 4 = experiment: MIC, agar dilutions in a double series, in vitro (Table 2); assay type: cell-based; conditions: Shighelli Boydii 4, agar dilution
Description: as §4

[9] = Hydrolysis of the esters in the animal organism; assay type: in vivo; conditions: ester at the alcoholic function
[10] = test system: grampositive and gram-negative microorganisms as well as Proteus; experiment: Antibacterial activity of the esterified derivatives compared with Z 2100; conditions: after hydrolysis in the animal organism
Description: as §4

Row | SMILES | MIC [1] [µg/mL] | MIC [2] [µg/mL] | MIC [3] [µg/mL] | MIC [4] [µg/mL] | MIC [5] [µg/mL] | MIC (Streptococcus faecalis) [µg/mL] | MIC (E. Coli K12) [µg/mL] | MIC [6] [µg/mL] | MIC (Proteus morgani N 520) [µg/mL] | MIC (S. aureus Oxford) [µg/mL] | MIC (Salmonelli Typhi M-VI) [µg/mL] | MIC (Strep. agalactiae 4 b) [µg/mL] | MIC [7] [µg/mL] | ED50 ([8]; NCTC10722, po, per os) [mg/kg] | MIC (Shighelli Boydii 4) [µg/mL] | hydrolysis in the animal organism [9] | activity relative to Z 2100 [10] | ED50 ([8]; NCTC10722, sc, subcutaneous) [mg/kg]
1 | CS(=O)(=O)c1ccc([C@@H](O)[C@@H](CO)NC(=O)C(Cl)Cl)cc1 [Thiamphenicol, reference compound] | 160 (≈ 449 µM) | 160 (≈ 449 µM) | 160 (≈ 449 µM) | 160 (≈ 449 µM) | 160 | 320 | – | – | – | – | – | – | – | – | – | – | – | –
2 | CS(=O)(=O)c1ccc([C@@H](O)[C@@H](CO)NC(=O)C(F)(F)F)cc1 [Z 2100, D-(+)-threo-1-(p-methanesulphonylphenyl)-2-trifluoroacetamido-1,3-propanediol] | 40 (≈ 117 µM) | 40 (≈ 117 µM) | 40 (≈ 117 µM) | 80 (≈ 234 µM) | 80 | 80 | 64 (≈ 188 µM) | 2 (≈ 5.86 µM) | 8 (≈ 23.4 µM) | 16 (≈ 46.9 µM) | 32 (≈ 93.8 µM) | 16 (≈ 46.9 µM) | 8 (≈ 23.4 µM) | 19 | – | – | – | –
3 | CSc1ccc([C@@H](O)[C@@H](CO)NC(=O)C(F)(F)F)cc1 [Z 2109, D-(-)-threo-1-(p-methylmercaptophenyl)-2-trifluoroacetamido-1,3-propanediol] | – | – | – | – | – | – | 16 (≈ 51.7 µM) | 4 (≈ 12.9 µM) | 4 (≈ 12.9 µM) | 32 (≈ 103 µM) | 64 (≈ 207 µM) | 64 (≈ 207 µM) | 32 (≈ 103 µM) | 16.6 | 32 (≈ 103 µM) | – | – | –
4 | CCCCCCCCCCCCCCCC(=O)OC[C@@H](NC(=O)C(F)(F)F)[C@H](O)c1ccc(S(C)(=O)=O)cc1 [Z 2112, D-(+)-threo-1-(p-methanesulphonylphenyl)-2-trifluoroacetamido-3-palmitoyloxy-1-propanol] | – | – | – | – | – | – | – | – | – | – | – | – | – | 21 | – | quickly hydrolyzed in the animal organism | show the same activity as Z 2100 | –
5 | CS(=O)(=O)c1ccc([C@@H](O)[C@@H](COC(=O)CN)NC(=O)C(F)(F)F)cc1 [Z 2117, D-(+)-threo-1-(p-methanesulphonylphenyl)-2-trifluoroacetamido-3-aminoacetoxy-1-propanol] | – | – | – | – | – | – | – | – | – | – | – | – | – | – | – | quickly hydrolyzed in the animal organism | show the same activity as Z 2100 | 14.3
